Reference: patent US11059845B2, “Immune stimulating macrolides” (ISR IMMUNE SYSTEM REGULATION HOLDING AB (PUBL), priority 2017, dated 2021)
Values after ≈ are worked out from the molar mass of the structure shown.

Key:
Type in all cases: cell-based
[1] = tested on: Bifidobacterium longum subsp. infantis; assay: Minimum Inhibitory Concentration (MIC) assay; conditions: anaerobic, 37° C., 18 h
Experimental: (§1) The bioactivity of macrolide compounds against 4 strains of common gut bacteria (Escherichia coli, Streptococcus salivarius subsp. salivarius, Lactobacillus casei and Bifidobacterium longum subsp. infantis) and common mammalian skin isolate Micrococcus luteus, was assessed using the Minimum Inhibitory Concentration (MIC) assay. Bacterial strains were purchased from DSMZ (Brunswick, Germany) except M. luteus which was obtained from NCIMB, and stored in 20% glycerol at −80° C. Stock solutions (100% DMSO) of positive controls (azithromycin and erythromycin), and of test compounds 1 and 2 were diluted in broth to working stock concentrations of 256 μg/ml (final assay testing concentration range 128 μg/ml to 0.00391 μg/ml). Stock solutions of all other compounds were diluted in broth to working stock concentrations of 128 μg/ml (final assay testing concentration range 64 μg/ml to 0.00195 μg/ml). Bacterial strains were cultivated in appropriate broth in an anaerobic chamber at 37° C., except for M. luteus which was incubated aerobically at 37° C. 18 h cultures were diluted in broth to an OD595 of 0.1 and then further diluted 1:10. In 96-well plates, in duplicate, 200 μl working stock of test compound was transferred to well 1 and serially diluted (1:2) in broth. 100 μl bacterial suspension was aliquoted into each well and mixed thoroughly. Appropriate sterility controls were included and plates were incubated in an anaerobic chamber, or aerobically (M. luteus) at 37° C. for 18 h. The MIC was determined to be the concentration of test compound in the first well with no visible growth.

[2] = tested on: Escherichia coli; assay: Minimum Inhibitory Concentration (MIC) assay; conditions: anaerobic, 37° C., 18 h
Experimental: as §1

[3] = tested on: Lactobacillus casei; assay: Minimum Inhibitory Concentration (MIC) assay; conditions: Lacticaseibacillus casei; anaerobic, 37° C., 18 h
Experimental: as §1

[4] = tested on: Micrococcus luteus; assay: Minimum Inhibitory Concentration (MIC) assay; conditions: aerobic, 37° C., 18 h
Experimental: as §1

[5] = tested on: Streptococcus salivarius subsp. salivarius; assay: Minimum Inhibitory Concentration (MIC) assay; conditions: anaerobic, 37° C., 18 h
Experimental: as §1

[6] = tested on: E. coli, S. salivarius, L. casei, B. longum or M. luteus; assay: Direct antibacterial activity, summary over all strains tested; conditions: against the bacterial strains tested (Table 1)
Experimental: as §1

[7] = biological target: T1, human TLR2 (Homo sapiens, UniProt O60603); assay: TLR2 reporter assay (HEK-293-TLR, SEAP); conditions: for OD after addition of 5 μM test article / OD after addition of 10 μM test article / OD after addition of 20 μM test article: SEAP reporter optical density; for TLR2 stimulation: at concentrations up to 20 uM
T1 construct: host or cells: recombinant HEK-293-TLR cell lines (hTLR2, NFkB-SEAP reporter)
T1 sequence (O60603 21-784): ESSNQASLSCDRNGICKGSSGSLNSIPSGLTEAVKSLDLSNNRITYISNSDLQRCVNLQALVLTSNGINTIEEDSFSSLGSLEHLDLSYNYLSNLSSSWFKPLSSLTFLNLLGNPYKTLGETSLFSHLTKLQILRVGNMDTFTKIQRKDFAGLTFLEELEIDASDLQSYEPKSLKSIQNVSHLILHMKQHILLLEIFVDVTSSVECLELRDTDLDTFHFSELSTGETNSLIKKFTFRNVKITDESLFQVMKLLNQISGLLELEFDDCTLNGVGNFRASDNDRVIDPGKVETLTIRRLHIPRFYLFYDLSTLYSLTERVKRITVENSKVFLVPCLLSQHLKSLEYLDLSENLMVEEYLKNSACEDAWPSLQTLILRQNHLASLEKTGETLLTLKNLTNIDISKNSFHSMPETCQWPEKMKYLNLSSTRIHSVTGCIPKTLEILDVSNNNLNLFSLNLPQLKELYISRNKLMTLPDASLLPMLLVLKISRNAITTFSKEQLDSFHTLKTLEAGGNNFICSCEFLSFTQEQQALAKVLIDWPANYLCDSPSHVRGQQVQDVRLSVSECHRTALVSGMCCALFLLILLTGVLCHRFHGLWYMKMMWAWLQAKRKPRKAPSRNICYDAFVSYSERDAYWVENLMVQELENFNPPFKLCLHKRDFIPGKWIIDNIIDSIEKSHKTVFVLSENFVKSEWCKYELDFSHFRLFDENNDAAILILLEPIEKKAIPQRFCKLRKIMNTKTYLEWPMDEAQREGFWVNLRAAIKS
Experimental: Samples and controls were tested in duplicate on recombinant HEK-293-TLR cell lines using a cell reporter assay at Invivogen using their standard assay conditions. These cell lines functionally over-express human TLR2 protein as well as a reporter gene which is a secreted alkaline phosphatase (SEAP). The production of this reporter gene is driven by an NFkB inducible promoter. The TLR reporter cell lines activation results are given as optical density values (OD). 20 μl of each test article were used to stimulate the hTLR2 reporter cell lines in a 200 μl of final reaction volume. Samples were tested in duplicate, with at least two concentrations tested—20 uM and 10 uM.
Compounds were tested using a TLR2 reporter assay (see general methods) that measured for stimulation of the TLR2 receptor. Stimulatory effect was measured as an increase in optical density (OD) due to release of secreted alkaline phosphatase (SEAP) and is shown in table 4: […]

Row | Compound | MIC [1] [µg/mL] | MIC [2] [µg/mL] | MIC [3] [µg/mL] | MIC [4] [µg/mL] | MIC [5] [µg/mL] | OD after addition of 5 μM test article [7] | OD after addition of 10 μM test article [7] | OD after addition of 20 μM test article [7] | TLR2 stimulation [7] | concentrations at which TLR2 was stimulated (down to) ([7]; lowest stimulating concentration tested) [µM] | antibacterial activity [6]
1 | CC[C@H]1OC(=O)[C@H](C)[C@@H](O[C@H]2C[C@@](C)(OC)[C@@H](O)[C@H](C)O2)[C@H](C)[C@@H](O[C@@H]2O[C@H](C)C[C@H](N(C)C)[C@H]2O)[C@](C)(O)C[C@@H](C)CN(C)[C@H](C)[C@@H](O)[C@]1(C)O [Azithromycin, reference compound] | > 64 | < 8 | < 1 | 0.125 (≈ 0.167 µM) | < 0.5 | 0.029 | 0.045 | 0.031 | little or no stimulation |  | potent activity against a number of the strains
2 | CC[C@H]1OC(=O)[C@H](C)[C@@H](O[C@H]2CC(N(C)C)[C@H](O)C(C)O2)[C@H](C)[C@@H](O)[C@](C)(O)C[C@@H](C)C(=O)[C@H](C)[C@@H](O)[C@H]1C (some centres unmarked) [Compound 3] |  |  |  |  |  | −0.043 | −0.015 | −0.026 | little or no stimulation |  | no antibacterial activity
3 | CC[C@H]1OC(=O)[C@H](C)[C@@H](O[C@H]2CC(N(C)C)[C@H](O)C(C)O2)[C@H](C)[C@@H](O)[C@](C)(O)C[C@@H](C)CN(C)[C@H](C)[C@@H](O)[C@H]1C (some centres unmarked) [Compound 4] | > 64 | > 64 | > 64 |  | > 64 |  |  |  |  |  | no antibacterial activity
4 | CC1O[C@@H](O[C@H]2[C@H](C)[C@@H](O)[C@](C)(O)C[C@@H](C)C(=O)[C@H](C)[C@@H](O)[C@@H](C)[C@@H](C3CCC3)OC(=O)[C@@H]2C)CC(N(C)C)[C@@H]1O (some centres unmarked) [Compound 5] | > 64 | > 64 | > 64 |  | > 64 |  |  |  |  |  | no antibacterial activity
5 | CC[C@H]1OC(=O)[C@H](C)[C@@H](O[C@H]2CC(NC)[C@H](O)C(C)O2)[C@H](C)[C@@H](O)[C@](C)(O)C[C@@H](C)C(=O)[C@H](C)[C@@H](O)[C@H]1C (some centres unmarked) [Compound 6] | > 64 | > 64 | > 64 |  | > 64 |  |  |  |  |  | no antibacterial activity
6 | CC[C@H]1OC(=O)[C@H](C)[C@@H](O[C@H]2CC(N(C)C)[C@H](O)C(C)O2)[C@H](C)[C@@H](O)[C@](C)(O)C[C@@H](C)C(O)[C@H](C)[C@@H](O)[C@H]1C (some centres unmarked) [Compound 7] | > 64 | > 64 | > 64 |  | > 64 |  |  |  |  |  | no antibacterial activity
7 | CC1O[C@@H](O[C@H]2[C@H](C)[C@@H](O)[C@](C)(O)C[C@@H](C)C(=O)[C@H](C)[C@@H](O)[C@@H](C)[C@@H](C)OC(=O)[C@@H]2C)CC(N(C)C)[C@@H]1O (some centres unmarked) [Compound 8] | > 64 | > 64 | > 64 |  | > 64 |  |  |  |  |  | no antibacterial activity

Further lines, with some results ahead:

Row | MIC [1] [µg/mL] | MIC [2] [µg/mL] | MIC [3] [µg/mL] | MIC [4] [µg/mL] | MIC [5] [µg/mL] | OD after addition of 5 μM test article [7] | OD after addition of 10 μM test article [7] | OD after addition of 20 μM test article [7] | TLR2 stimulation [7] | concentrations at which TLR2 was stimulated (down to) ([7]; lowest stimulating concentration tested) [µM] | Compound | antibacterial activity [6]
8 | > 64 | > 64 | > 64 |  | > 64 |  |  |  |  |  | CC(O)[C@H]1OC(=O)[C@H](C)[C@@H](O[C@H]2C[C@@H](N(C)C)[C@H](O)[C@@H](C)O2)[C@H](C)[C@@H](O)[C@](C)(O)C[C@@H](C)C(=O)[C@H](C)[C@@H](O)[C@H]1C (some centres unmarked) [Compound 9, 14-hydroxy angolosamine erythronolide B] | no antibacterial activity
9 |  |  |  |  |  | 0.054 | 0.155 | 0.234 |  | ≥ 10 | CC[C@H]1OC(=O)[C@H](C)[C@@H](O[C@H]2CC(N(C)C)[C@H](O)C(C)O2)[C@H](C)[C@@H](O)[C@](C)(O)C[C@@H](C)N(C)C[C@H](C)[C@@H](O)[C@]1(C)O (some centres unmarked) [Compound 17] | 
10 | > 64 | > 64 | < 0.25 | < 0.0625 | < 0.06 | 0.035 | 0.065 | 0.045 | little or no stimulation |  | CC[C@H]1OC(=O)[C@H](C)[C@@H](O[C@H]2C[C@@](C)(OC)[C@@H](O)[C@H](C)O2)[C@H](C)[C@@H](O[C@@H]2O[C@H](C)C[C@H](N(C)C)[C@H]2O)[C@](C)(O)C[C@@H](C)C(=O)[C@H](C)[C@@H](O)[C@]1(C)O [Erythromycin, reference compound] | potent activity against a number of the strains
